Laboratory results: patent publication US20160074643A1, “SKIN CARE PRODUCTS” (The Procter & Gamble Company, priority 2014, published 2016)
Values joined by “and” are separate entries in the source; they are usually repeats but may differ in a detail not shown here. Identical values can stand only once.

Assay: Vitamin B3 in vivo skin penetration study #2: Tape Stripping Method, magnetic vs non-magnetic applicator
Design: species or system human; amount of niacinamide recovered from tape strip / amount of niacinamide recovered from tape strip, Avg / amount of niacinamide recovered, Sum 2-10 / amount of niacinamide recovered, Sum 2-10, Avg / amount of niacinamide recovered, Sum 6-10 / amount of niacinamide recovered, Sum 6-10, Avg: unit not given here
Details: for amount of niacinamide recovered from tape strip, Avg / amount of niacinamide recovered, Sum 2-10, Avg / amount of niacinamide recovered, Sum 6-10, Avg: average across all 10 test sites; for amount of niacinamide recovered, Sum 2-10, Avg / amount of niacinamide recovered, Sum 2-10: sum of strips 2-10; for amount of niacinamide recovered, Sum 6-10, Avg / amount of niacinamide recovered, Sum 6-10: sum of strips 6-10
Protocol: This method provides a suitable means of measuring the amount of skin care active present in skin, and comparing active versus passive application of the skin care active. Two identical circular areas of 7.9 cm^2 were marked on the volar forearms of volunteers. A measured dose (approximately 9 mg) of the skin care formulation (ingredients shown in Table 1) was applied to the delineated areas using a screw actuated syringe. Active application was carried out using purpose made applicators having a metallic aluminium skin contact surface behind which was the magnetic array. The cream was spread evenly across the entire delineated region using the applicator in a sweeping motion with a fixed speed of approximately 3.5 cm/s to mimic normal finger application. Passive application was performed using the tip of a finger in a sweeping motion identical to that of application using the applicator. The application period was 30 seconds during which time visual inspection was used to ensure even distribution and absorption of the formulation by skin. The application area was then left uncovered for a further 30 minutes to ensure complete absorption. The application area was then wiped thoroughly to remove any surface material, followed by carrying out tape stripping.
The Tape Stripping Method can be carried out using commercial pre-cut 22.1 mm tape stripping adhesive discs (D-SQUAME brand tape strips from Cuderm Corporation or equivalent) with an adhesive area of 3.8 cm^2. A 22.1 mm diameter circular region was marked at the center of the application area. A tape stripping adhesive disc was placed over the marked area and even pressure applied using a neoprene roller, rolled ten times over the surface. The adhesive disc was removed from the skin surface in a single pulling motion using manual tweezers. To ensure even removal of the stratum corneum, subsequent discs were removed in a north, south, east and west orientation. Each adhesive disc was non-destructively analyzed for relative protein content using the SquameScan™ 850 instrument (Heiland Electronics Wetzlar Germany). The adhesive disc was then immediately placed into a glass vial containing extraction solvent in preparation for subsequent analysis. Solvent extractions are conducted on each tape strip using conventional extraction methods, which are well known to those of ordinary skill in the art, and measuring the amount of niacinamide present in the extract, for example, by high performance liquid chromatography (“HPLC”) and/or mass spectrometry.
In this example, 5 test subjects (A to E in Tables 13 and 14) were selected. […] The applicator used for active application included Array #8 from Table 2. The applicator used for passive application was the same as the one used for active application except without the magnetic array. Each forearm included an active application test site and a passive application site for a total of 10 active test sites and 10 passive sites. The application time was 30 seconds with a speed of motion of approximately 3 cm per second, equating to a gentle rubbing action. Application of the composition was followed by a 30 minute absorption period. […] The level of niacinamide recovered from each tape strip was measured using HPLC.
The average value across all test sites is shown in the second to last cell of the row. The standard error of the mean (SEM) is shown in the last column of Tables 13 and 14. The SEM is calculated by dividing the standard deviation by the square root of the number of test sites. The active versus passive application results from Tables 13 and 14 are graphically illustrated in FIG. 7.
The enhancement values shown in Table 15 are calculated by dividing the active value from Table 14 by the passive value from Table 13. The average shown in the last column of Table 15 is calculated by averaging the enhancement values of all the test sites. […]

[1] = active value divided by passive value, average of all test sites
[2] = active value divided by passive value, individual test sites, Subjects A-E, Site 1/2
[3] = Active Application (magnetic applicator, Array #8)
[4] = Active Application (magnetic applicator, Array #8), individual test sites, Subjects A-E, Site 1/2
[5] = Passive Application (non-magnetic applicator)
[6] = Passive Application (non-magnetic applicator), individual test sites, Subjects A-E, Site 1/2

NC(=O)c1cccnc1 [niacinamide]
Enhancement value Strips 2-10, Avg [1]: 1.47
Enhancement value Strips 6-10, Avg [1]: 1.46
Enhancement value Strips 2-10 [2]: 1.63 and 1.35 and 1.77 and 1.47 and 1.51 and 1.26 and 1.19 and 1.39 and 1.59 and 1.54
Enhancement value Strips 6-10 [2]: 1.53 (2×) and 1.34 and 1.71 and 1.41 and 1.83 and 1.19 and 1.21 and 1.39 and 1.43
niacinamide delivered into the skin, active compared to passive application (magnetic applicator vs non-magnetic applicator): about 1.5 ×
amount of niacinamide recovered from tape strip, Avg (strip 1, Active Application (magnetic applicator, Array #8)): 4.43
amount of niacinamide recovered from tape strip, Avg (strip 1, Passive Application (non-magnetic applicator)): 3.87
amount of niacinamide recovered from tape strip (strip 1, Passive Application (non-magnetic applicator), individual test sites, Subjects A-E, Site 1/2): 2.62 and 3.31 and 3.07 and 2.86 and 3.16 and 5.69 and 4.14 and 6.28 and 0.54 and 7.00
amount of niacinamide recovered from tape strip, Avg (strip 2, Active Application (magnetic applicator, Array #8)): 6.10
amount of niacinamide recovered from tape strip, Avg (strip 2, Passive Application (non-magnetic applicator)): 4.12
amount of niacinamide recovered from tape strip (strip 2, Passive Application (non-magnetic applicator), individual test sites, Subjects A-E, Site 1/2): 2.66 and 3.81 and 2.71 and 2.52 and 4.24 and 7.80 and 5.47 and 7.28 and 1.84 and 2.88
amount of niacinamide recovered from tape strip, Avg (strip 3, Active Application (magnetic applicator, Array #8)): 8.37
amount of niacinamide recovered from tape strip, Avg (strip 3, Passive Application (non-magnetic applicator)): 5.69
amount of niacinamide recovered from tape strip (strip 3, Passive Application (non-magnetic applicator), individual test sites, Subjects A-E, Site 1/2): 3.51 and 5.43 and 6.33 and 3.77 and 6.64 and 7.64 and 6.14 and 9.62 and 2.43 and 5.36
amount of niacinamide recovered from tape strip, Avg (strip 4, Active Application (magnetic applicator, Array #8)): 8.25
amount of niacinamide recovered from tape strip, Avg (strip 4, Passive Application (non-magnetic applicator)): 6.18
amount of niacinamide recovered from tape strip (strip 4, Passive Application (non-magnetic applicator), individual test sites, Subjects A-E, Site 1/2): 4.22 and 2.79 and 8.53 and 4.24 and 7.48 and 7.15 and 5.87 and 11.29 and 1.29 and 8.91
amount of niacinamide recovered from tape strip, Avg (strip 5, Active Application (magnetic applicator, Array #8)): 7.68
amount of niacinamide recovered from tape strip, Avg (strip 5, Passive Application (non-magnetic applicator)): 4.91
amount of niacinamide recovered from tape strip (strip 5, Passive Application (non-magnetic applicator), individual test sites, Subjects A-E, Site 1/2): 4.57 and 3.79 and 6.08 and 2.74 and 6.35 and 6.21 and 5.61 and 7.10 and 2.27 and 4.36
amount of niacinamide recovered from tape strip, Avg (strip 6, Active Application (magnetic applicator, Array #8)): 7.02
amount of niacinamide recovered from tape strip, Avg (strip 6, Passive Application (non-magnetic applicator)): 4.72
amount of niacinamide recovered from tape strip (strip 6, Passive Application (non-magnetic applicator), individual test sites, Subjects A-E, Site 1/2): 4.37 and 3.42 and 6.69 and 1.97 and 5.29 and 7.95 and 4.56 and 6.46 and 2.62 and 3.85
amount of niacinamide recovered from tape strip, Avg (strip 7, Active Application (magnetic applicator, Array #8)): 5.52
amount of niacinamide recovered from tape strip, Avg (strip 7, Passive Application (non-magnetic applicator)): 3.66
amount of niacinamide recovered from tape strip (strip 7, Passive Application (non-magnetic applicator), individual test sites, Subjects A-E, Site 1/2): 3.57 and 3.37 and 4.35 and 1.87 and 3.82 and 6.89 and 5.41 and 0.19 and 2.67 and 4.47
amount of niacinamide recovered from tape strip, Avg (strip 8, Active Application (magnetic applicator, Array #8)): 4.63
amount of niacinamide recovered from tape strip, Avg (strip 8, Passive Application (non-magnetic applicator)): 3.43
amount of niacinamide recovered from tape strip (strip 8, Passive Application (non-magnetic applicator), individual test sites, Subjects A-E, Site 1/2): 2.65 and 2.92 and 2.85 and 1.56 and 4.65 and 5.34 and 2.94 and 5.75 and 1.88 and 3.71
amount of niacinamide recovered from tape strip, Avg (strip 9, Active Application (magnetic applicator, Array #8)): 5.11
amount of niacinamide recovered from tape strip, Avg (strip 9, Passive Application (non-magnetic applicator)): 3.59
amount of niacinamide recovered from tape strip (strip 9, Passive Application (non-magnetic applicator), individual test sites, Subjects A-E, Site 1/2): 2.95 and 2.37 and 2.24 and 2.00 and 3.78 and 6.70 and 2.79 and 7.20 and 2.15 and 3.70
amount of niacinamide recovered from tape strip, Avg (strip 10, Active Application (magnetic applicator, Array #8)): 4.48
amount of niacinamide recovered from tape strip, Avg (strip 10, Passive Application (non-magnetic applicator)): 3.20
amount of niacinamide recovered from tape strip (strip 10, Passive Application (non-magnetic applicator), individual test sites, Subjects A-E, Site 1/2): 1.58 and 2.24 and 1.54 and 1.31 and 4.53 and 5.34 and 2.42 and 6.19 and 0.71 and 6.10
amount of niacinamide recovered, Sum 2-10, Avg [3]: 57.16
amount of niacinamide recovered, Sum 2-10 [4]: 49.17 and 40.65 and 72.98 and 32.23 and 70.46 and 76.77 and 48.95 and 85.20 and 28.48 and 66.67
amount of niacinamide recovered, Sum 2-10, Avg [5]: 39.48
amount of niacinamide recovered, Sum 2-10 [6]: 30.09 and 30.15 and 41.32 and 21.97 and 46.79 and 61.02 and 41.20 and 61.08 and 17.87 and 43.34
amount of niacinamide recovered, Sum 6-10, Avg [3]: 26.76
amount of niacinamide recovered, Sum 6-10 [4]: 23.12 and 19.16 and 30.14 and 12.25 and 40.38 and 38.27 and 21.85 and 35.82 and 15.32 and 31.26
amount of niacinamide recovered, Sum 6-10, Avg [5]: 18.59
amount of niacinamide recovered, Sum 6-10 [6]: 15.13 and 14.32 and 17.67 and 8.70 and 22.07 and 32.21 and 18.11 and 25.79 and 10.04 and 21.84
